# Values of other authors as cited in patent publication US20090317456A1, “USE OF ONCOLYTIC VIRUSES AND ANTIANGIOGENIC AGENTS IN THE TREATMENT OF CANCER” (priority 2006, published 2009).
# Experiments:
# [1] = tested on: VEGFR tyrosine kinases, including VEGFR-3; conditions: all known VEGFR tyrosine kinases
# [2] = tested on: metastatic colorectal cancer; conditions: bevacizumab added to FOLFOX or FOLFIRI; prolonged from 12 months without
Compound,inhibition of PDGFR (PDGFR),inhibition of VEGFR tyrosine kinases [1],median survival [2] [months]
Clc1ccc(Nc2nnc(Cc3ccncc3)c3ccccc23)cc1 [PTK 787/ZK 222584],nanomolar range,lower nanomolar range,–
"bevacizumab: humanized anti-VEGF monoclonal antibody (Avastin, Genentech)",–,–,20
